Results reported in ChEMBL document CHEMBL3885861, “Open TG-GATES”.

Organism: Rattus norvegicus
Assay: Open TG-GATES - Regimen: Single
Type: toxicity, organism-based, Sprague-Dawley
Parameters: regimen Single, gender Male, age 6 weeks
Details: in vivo, po, 0 mg/kg, route gavage, dose level Control; for APTT / Bas / Eos / Fbg / Hb / Ht / Lym / MCH / MCHC / MCV / Mono / Neu / PT / Plat / RBC / Ret / WBC: tissue Blood; for A/G / ALP / ALT / AST / BUN / CRE / Ca / Cl / DBIL / GLC / IP / K / LDH / Na / PL / RALB / TBIL / TC / TG / TP / gamma-GTP: tissue Plasma

Cn1cc[nH]c1=S [METHIMAZOLE]
TERMINAL_BW (3 h): 207.3 g
APTT (3 h): 20.3 s
Bas (3 h): 0%
Eos (3 h): 0.4%
Fbg (3 h): 292.4 mg/dL
Hb (3 h): 13.6 g/dL
Ht (3 h): 38.8%
Lym (3 h): 82.4%
MCH (3 h): 22.3 pg
MCHC (3 h): 35.1%
MCV (3 h): 63.5 fL
Mono (3 h): 1.8%
Neu (3 h): 14.6%
PT (3 h): 15.8 s
Plat (3 h): 122.5 x10_4/uL
RBC (3 h): 612 x10_4/ul
Ret (3 h): 8.6%
WBC (3 h): 96.4 x10_2/uL
A/G (3 h): 1.3
ALP (3 h): 1879.2 IU/L
ALT (3 h): 44.4 IU/L
AST (3 h): 75.8 IU/L
BUN (3 h): 14.4 mg/dL
CRE (3 h): 0.2 mg/dL
Ca (3 h): 10.6 mg/dL
Cl (3 h): 106.8 meq/L
DBIL (3 h): 0.002 mg/dL
GLC (3 h): 190.6 mg/dL
IP (3 h): 8.2 mg/dL
K (3 h): 4.1 meq/L
LDH (3 h): 186.8 IU/L
Na (3 h): 142 meq/L
PL (3 h): 143.6 mg/dL
RALB (3 h): 3 g/dL
TBIL (3 h): 0.02 mg/dL
TC (3 h): 84 mg/dL
TG (3 h): 55.6 mg/dL
TP (3 h): 5.4 g/dL
gamma-GTP (3 h): 1 IU/L
TERMINAL_BW (6 h): 210.9 g
APTT (6 h): 21.9 s
Bas (6 h): 0%
Eos (6 h): 0.8%
Fbg (6 h): 287.6 mg/dL
Hb (6 h): 13.5 g/dL
Ht (6 h): 38.4%
Lym (6 h): 82%
MCH (6 h): 22.3 pg
MCHC (6 h): 35.1%
MCV (6 h): 63.6 fL
Mono (6 h): 2.6%
Neu (6 h): 13.8%
PT (6 h): 16 s
Plat (6 h): 117.7 x10_4/uL
RBC (6 h): 605 x10_4/ul
Ret (6 h): 9.1%
WBC (6 h): 103.6 x10_2/uL
A/G (6 h): 1.2
ALP (6 h): 1447.2 IU/L
ALT (6 h): 47.2 IU/L
AST (6 h): 77.4 IU/L
BUN (6 h): 10.8 mg/dL
CRE (6 h): 0.1 mg/dL
Ca (6 h): 10.6 mg/dL
Cl (6 h): 106.4 meq/L
DBIL (6 h): 0 mg/dL
GLC (6 h): 185 mg/dL
IP (6 h): 9.7 mg/dL
K (6 h): 4.4 meq/L
LDH (6 h): 228 IU/L
Na (6 h): 141.8 meq/L
PL (6 h): 141.6 mg/dL
RALB (6 h): 3 g/dL
TBIL (6 h): 0.022 mg/dL
TC (6 h): 79.4 mg/dL
TG (6 h): 54.2 mg/dL
TP (6 h): 5.4 g/dL
gamma-GTP (6 h): 1 IU/L
TERMINAL_BW (9 h): 203.8 g
APTT (9 h): 21.7 s
Bas (9 h): 0%
Eos (9 h): 0.8%
Fbg (9 h): 302.2 mg/dL
Hb (9 h): 13.4 g/dL
Ht (9 h): 38.7%
Lym (9 h): 81.6%
MCH (9 h): 22 pg
MCHC (9 h): 34.7%
MCV (9 h): 63.4 fL
Mono (9 h): 2.2%
Neu (9 h): 14.8%
PT (9 h): 16 s
Plat (9 h): 119.6 x10_4/uL
RBC (9 h): 610 x10_4/ul
Ret (9 h): 7.7%
WBC (9 h): 102.4 x10_2/uL
A/G (9 h): 1.1
ALP (9 h): 1453.2 IU/L
ALT (9 h): 40.2 IU/L
AST (9 h): 68.8 IU/L
BUN (9 h): 11.4 mg/dL
CRE (9 h): 0.1 mg/dL
Ca (9 h): 10.4 mg/dL
Cl (9 h): 106 meq/L
DBIL (9 h): 0.002 mg/dL
GLC (9 h): 184.2 mg/dL
IP (9 h): 9.8 mg/dL
K (9 h): 4.1 meq/L
LDH (9 h): 181.8 IU/L
Na (9 h): 141.6 meq/L
PL (9 h): 136.8 mg/dL
RALB (9 h): 2.9 g/dL
TBIL (9 h): 0.014 mg/dL
TC (9 h): 73 mg/dL
TG (9 h): 75.6 mg/dL
TP (9 h): 5.5 g/dL
gamma-GTP (9 h): 1.2 IU/L
TERMINAL_BW (24 h): 225.5 g
APTT (24 h): 21.4 s
Bas (24 h): 0%
Eos (24 h): 1%
Fbg (24 h): 315 mg/dL
Hb (24 h): 13.7 g/dL
Ht (24 h): 38.8%
Lym (24 h): 78%
MCH (24 h): 22.1 pg
MCHC (24 h): 35.3%
MCV (24 h): 62.5 fL
Mono (24 h): 2.8%
Neu (24 h): 17.4%
PT (24 h): 15.7 s
Plat (24 h): 124.5 x10_4/uL
RBC (24 h): 621.4 x10_4/ul
Ret (24 h): 8.2%
WBC (24 h): 97.4 x10_2/uL
A/G (24 h): 1.1
ALP (24 h): 1887.6 IU/L
ALT (24 h): 42.8 IU/L
AST (24 h): 69 IU/L
BUN (24 h): 15.8 mg/dL
CRE (24 h): 0.1 mg/dL
Ca (24 h): 11 mg/dL
Cl (24 h): 104.6 meq/L
DBIL (24 h): 0 mg/dL
GLC (24 h): 180.6 mg/dL
IP (24 h): 7.6 mg/dL
K (24 h): 4.2 meq/L
LDH (24 h): 183.2 IU/L
Na (24 h): 142.4 meq/L
PL (24 h): 156.6 mg/dL
RALB (24 h): 2.9 g/dL
TBIL (24 h): 0.004 mg/dL
TC (24 h): 77.8 mg/dL
TG (24 h): 120.4 mg/dL
TP (24 h): 5.6 g/dL
gamma-GTP (24 h): 1 IU/L
